In US20050070594A1, “Use of angiotensin II receptor antagonists” (Boehringer Ingelheim International GmbH, priority 2003, published 2005):

Assays:
PPARgamma [1] = experiment: Transcription reporter assay (PPRE-luciferase) in 3T3-L1 adipocytes; format: cell-based, mouse; conditions: 10 μmol/L, 24 hours
Method: (§1) 3T3-L1 adipocytes (day 4) or PC12W cells are transfected with Lipofectamine 2000 (Invitrogen) in the presence of 1 μg (for 3T3-L1 cells) or 50 ng (for PC12W cells) of a reporter construct, PPARgamma2 and RXRalpha expression vectors and 10 ng of a Renilla Luciferase Reporter control vector. The reporter construct is a fusion of 3xAcyl-CoA oxidase PPAR Response Element (PPRE) with Tk-luciferase. […] The Luciferase Reporter control vector is the plasmid pRL-CMV (Promega).

[2] = target: T1, ligand binding domain of the human PPARgamma2 transcription factor (Gal4 DNA binding domain fusion) (Homo sapiens, UniProt P37231); experiment: Luciferase activity in stably transformed PPARgamma reporter cell line (CHO-K1 clone 11); format: cell-based; conditions: 24 hours
T1 construct: codes for amino acids 205-505 of the human PPARgamma2 transcription factor; expressed in transfected cells
T1 sequence (P37231 205-505): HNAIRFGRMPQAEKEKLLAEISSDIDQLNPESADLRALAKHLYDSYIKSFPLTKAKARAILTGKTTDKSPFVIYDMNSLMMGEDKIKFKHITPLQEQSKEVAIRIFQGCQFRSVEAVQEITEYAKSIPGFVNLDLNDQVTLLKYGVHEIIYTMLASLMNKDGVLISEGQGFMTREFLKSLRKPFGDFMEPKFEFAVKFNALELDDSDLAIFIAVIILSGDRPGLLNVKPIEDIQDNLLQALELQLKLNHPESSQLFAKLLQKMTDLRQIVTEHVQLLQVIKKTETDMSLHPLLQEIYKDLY
Method: The resulting plasmid pFA-CMV/hPPARgamma2-LBD codes N-terminally of the PPARgamma-LBD in the same reading frame for a Gal4 DNA binding domain. In addition the plasmid codes for a neomycin resistance.
The cell line CHO-K1 (ATCC CCL-61) is cotransfected with the plasmids pFA-CMV/hPPARgamma2-LBD and pFR-Luc (Stratagene). pFR-Luc codes for the luciferase gene under the control of a five-times repeated yeast Gal4 binding site. The transfection is carried out with lipofectamine2000 in accordance with the manufacturer's instructions.
After six days' cultivation the cells are passaged and kept in culture for another 10 days. The resulting neomycin-resistant colonies are picked out under the microscope and transferred into 96 well-dishes and cultured.
The test substances are brought to 100 times the desired concentration with a suitable solvent, e.g. DMSO, and diluted 1:100 with the medium placed in the cell culture plate. The solvent used, e.g. DMSO, is used as the background control in the same concentration.
Luminescence is measured after a five minute wait using a Packard TopCount NXT. The luciferase activity is obtained by integrating the relative luciferase units (RLU) of the first ten seconds after the start of measurement.

PPARgamma [3] = target: T2, PPARgamma (Homo sapiens, UniProt P37231); experiment: Transcription reporter assay (PPRE-luciferase) in AT1-receptor-deficient PC12W cells; format: cell-based; conditions: 10 μmol/L
T2 construct: expressed in transfected cells; host or cells: PC12W cells (AT1-receptor-deficient), transient transfection
T2 sequence (P37231 1-505): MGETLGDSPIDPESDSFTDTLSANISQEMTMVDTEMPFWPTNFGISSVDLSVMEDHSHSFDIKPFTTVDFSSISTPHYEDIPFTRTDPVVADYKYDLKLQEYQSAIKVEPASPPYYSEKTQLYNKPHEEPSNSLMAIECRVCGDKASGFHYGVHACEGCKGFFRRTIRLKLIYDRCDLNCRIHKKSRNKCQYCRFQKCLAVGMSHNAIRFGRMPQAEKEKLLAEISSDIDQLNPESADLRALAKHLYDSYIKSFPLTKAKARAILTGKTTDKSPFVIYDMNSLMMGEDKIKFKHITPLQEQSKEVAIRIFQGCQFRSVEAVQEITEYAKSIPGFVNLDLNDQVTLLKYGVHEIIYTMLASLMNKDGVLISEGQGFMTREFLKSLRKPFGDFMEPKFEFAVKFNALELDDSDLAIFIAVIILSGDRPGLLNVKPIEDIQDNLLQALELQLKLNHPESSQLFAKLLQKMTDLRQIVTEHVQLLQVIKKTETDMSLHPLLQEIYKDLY
T2 sequence (P19793 1-462 partner): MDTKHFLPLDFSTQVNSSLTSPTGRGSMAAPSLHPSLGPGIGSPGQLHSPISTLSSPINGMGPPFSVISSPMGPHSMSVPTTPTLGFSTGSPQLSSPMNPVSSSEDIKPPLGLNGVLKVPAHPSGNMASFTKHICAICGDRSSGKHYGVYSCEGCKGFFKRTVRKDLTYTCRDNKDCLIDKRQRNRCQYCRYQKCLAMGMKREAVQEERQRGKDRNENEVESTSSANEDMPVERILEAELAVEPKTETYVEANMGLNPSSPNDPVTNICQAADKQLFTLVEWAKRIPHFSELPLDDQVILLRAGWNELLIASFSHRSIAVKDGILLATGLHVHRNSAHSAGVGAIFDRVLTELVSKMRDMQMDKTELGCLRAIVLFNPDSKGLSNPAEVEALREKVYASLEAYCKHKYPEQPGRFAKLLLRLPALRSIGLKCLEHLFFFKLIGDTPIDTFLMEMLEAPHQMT
Method: as §1
PC12W cells are AT1-receptor-deficient.

[4] = system: Adipose Protein 2 (aP2) expression; experiment: Stimulation of aP2 expression in 3T3-L1 cells (real time PCR); format: cell-based, mouse; conditions: 10 μmol/L
Description: 3T3-L1 mouse preadipocytes are cultivated in DMEM (Dulbecco's modified eagle medium) with 10% foetal calf serum (FBS). PC12W cells are cultivated in DMEM with 5% FBS and 10% equine serum. In both cases the media contain 1% penicillin/streptomycin.
The differentiation of adipocytes is induced 2-3 days after cell confluence by adding a differentiating solution. This contains • 1 μmol/L of dexamethasone, • 0.5 mmol/L of 3-isobutyl-1-methylxanthine, • 1.67 μmol/L of insulin, and • 10% FBS.
Then the cells are stimulated for another 48 hours before finally being analysed (day 4).
RNA isolation, reverse transcription and quantification of gene expression are carried out using an ABI 7000 sequence detection system-for real time PCR (described in Janke et al, Diabetes 51:1699-707, 2002). The endogenous control used for the real time PCR consists of the household genes 18S rRNA and hypoxanthine guanine phosphoribosyl transferase (hprt).

With `CCCc1nc2c(C)cc(-c3nc4ccccc4n3C)cc2n1Cc1ccc(-c2ccccc2C(=O)O)cc1` [telmisartan] the “induction of the transcriptional activity of PPARgamma, factor” value (PPARgamma [1]) was 3.4±0.9, the “luciferase activity (MW)” value ([2]; 1.00E−05 M) was 61397 RLU and the “luciferase activity (MW)” value ([2]; 1.00E−06 M) was 2859 RLU. The “luciferase activity (MW)” value ([2]; 3.00E−05 M) was 58790 RLU, the “luciferase activity (MW)” value ([2]; 3.00E−06 M) was 24498 RLU and the “luciferase activity (MW)” value ([2]; 3.00E−07 M) was 760 RLU. For the same molecule, the “regulation of the PPARgamma activity” value (PPARgamma [3]; PC12W cells in the absence of exogenous PPARgamma2/RXRalpha) was “no regulation”, the “induction of PPARgamma activity, factor” value (PPARgamma [3]; PC12W cells overexpressing PPARgamma2/RXRalpha) was 1.9±0.4 and the “stimulation of aP2 expression, factor” value [4] was 3.1±0.3.
